Measured values as given in patent US20220280526A1, “AGENT FOR THE TREATMENT OF PSORIASIS” (EBERHARD KARLS UNIVERSITAET TUEBINGEN MEDIZINISCHE FAKULTAET, priority 2019, published 2022).
“Also recorded” adds a separate entry of the source.

Assays:
STAT3 lysine methylation = test: Detection of methylated STAT3 by immunoprecipitation in HEK293T cells; format: cell-based; details: STAT3- and EZH2-overexpressing HEK293T cells, 1 h treatment
Method: HEK293T cells were transfected using HBS buffer and CaCl2. HaCaT cells were transfected with Lipofectamine 3000, according to the manufacturer's instructions (Thermo Fisher). 5 μg expression constructs were incubated with 3*10^5 cells for 4 h. 36-48 h post transfection, cells were harvested and analysed.
Western blot analysis was performed as described before. The following antibodies were used and purchased from Cell Signaling: anti-IκBζ (9244), anti-phospho-STAT3 at Tyr705 (9145), anti-phospho-STAT3 at Ser727 (9134), anti-STAT3 (12640), anti-p65 (8242), anti-EZH2 (5246), anti-pRB (phospho-RB at Ser807/811; 8516), anti-FoxM1 (5436), anti-H3 (4499), anti-CDK4 (12790), anti-CDK6 (13331), anti-CDK9 (2316), anti-cyclin D1 (2978), anti-cyclin D2 (3741), anti-cyclin D3 (2936), anti-cJUN (9165), anti-H3K27me3 (9733), anti-GAPDH (2118), anti-H3 (9715) and anti-β-actin (3700). Anti-β-Gal (sc377257) and anti-GFP (sc9996) were obtained from Santa Cruz Biotechnology. Anti-pEZH2 at T345 (61242) anti-pEZH2 at T487 (12820) were purchased from Active Motif and anti-pan-methyl-lysine antibody was purchased from Enzo (ADI-KAP-TF121-E). For detection of mouse IκBζ, a self-made antibody raised against peptides […] (SEQ ID NO:3) and […] (SEQ ID NO:4) was applied. […]

[1] = test system: IL-36-mediated psoriasis-like dermatitis; test: IL-36α-triggered psoriasis-like dermatitis mouse model, topical treatment of ears; format: in vivo, C57BL/6 mice
Method: Experiments were conducted in accordance with the German law guidelines of animal care. […] At day 7, mice were sacrificed and analysed. For IL-36α-mediated psoriasis induction, ears of male C57BL/6 mice (8-12 weeks old) were treated by intradermal injections using 1 μg murine IL-36α (aa 8-160, R&D) or PBS control for 5 consecutive days. […] Inhibitors were topically applicated 6 h before intradermal injections of IL-36α or PBS were applied. Mice were sacrificed and analysed at day 6. Ear sections from mice were fixed in 10% formalin (Carl Roth) and subsequently embedded in paraffin. 5-μm sections were prepared and incubated with the following antibodies from Cell Signaling: pSTAT3 (9145), pRB (8516) and H3K27me3 (9733). For staining of human skin samples, EZH2 antibody (Cell Signaling, 5246) was used. Antigen retrieval was performed in 1 mM EDTA pH 8.0 for pSTAT3, and 10 mM citrate buffer pH 6.0+0.5% Triton X-100 for EZH2, H3K27me3 and pRB. After incubation with peroxidase-coupled secondary antibodies, sections were stained with DAB substrate.

IκBζ (NFKBIZ) expression = test: IκBζ expression in cytokine-stimulated primary human keratinocytes (immunoblot, qPCR); format: cell-based; details: 1 h cytokine, abemaciclib 16 μM, palbociclib 50 μM
Excerpt: HaCaT cells were maintained in DMEM with 10% FCS and antibiotics. Human primary keratinocytes were freshly isolated from foreskin and maintained in CnT-07S medium with gentamycin (CELLnTEC). Recombinant human IL-36α (aa 6-158) and mouse IL-36α (aa 6-160) were purchased from R&D Systems. Recombinant IL-17A (11340174), TNFα (11343013) and IL-1β (11340013) were ordered from Immunotools. Flagellin (vac-fla) and poly I:C (vac-pic) were purchased from Invivogen. In cell culture experiments, the cytokines were used at the following concentrations, as described previously: IL-36α (100 ng/mL), IL-17A (200 ng/mL), TNFα (10 ng/mL) and IL-1β (100 ng/mL). Flagellin was applied at 10 ng/mL and poly(I:C) was added at a final concentration of 100 ng/mL. […] When indicated, cells were starved for 2 h prior to cytokine treatment, by removing cell culture supplements from the growth medium.
Western blot analysis was performed as described before. […]
Gene expression analyses were performed as described. Relative gene expression was analyzed using self-designed primers ordered at Metabion (not shown). Relative mRNA levels were calculated by normalization to the human reference gene RPL37A or the mouse reference gene Actin using the 2-ΔΔCt method.

[2] = test system: IMQ-induced psoriasis-like skin inflammation; test: Imiquimod (IMQ)-mediated psoriasis mouse model, topical treatment of ears; format: in vivo, C57BL/6 mice
Method: Experiments were conducted in accordance with the German law guidelines of animal care. […] At day 7, mice were sacrificed and analysed. For IL-36α-mediated psoriasis induction, ears of male C57BL/6 mice (8-12 weeks old) were treated by intradermal injections using 1 μg murine IL-36α (aa 8-160, R&D) or PBS control for 5 consecutive days. […] Inhibitors were topically applicated 6 h before intradermal injections of IL-36α or PBS were applied. Mice were sacrificed and analysed at day 6.
Sample preparation was performed as described. The following anti-mouse antibodies from BioLegend were used: anti-CD45 FITC (103107), anti-CD11 b PacificBlue (101223), anti-Ly6G PE (127607), anti-F4/80 APC (123115), anti-CD11c Pacific Blue (117322), anti-MHC-II APC (107613), anti-CD172α PE (144011) and anti-Silec-H PE (129605). Anti-PDCA-1 APC (17-2092-80) and anti-αβTCR PE (HM3628) were purchased from Invitrogen, and anti-γδ-TCR APC (17-5711-82) from Sigma. Data was acquired on a LSRII flow cytometer (Becton Dickson).
Ear sections from mice were fixed in 10% formalin (Carl Roth) and subsequently embedded in paraffin. 5-μm sections were prepared and incubated with the following antibodies from Cell Signaling: pSTAT3 (9145), pRB (8516) and H3K27me3 (9733). For staining of human skin samples, EZH2 antibody (Cell Signaling, 5246) was used. Antigen retrieval was performed in 1 mM EDTA pH 8.0 for pSTAT3, and 10 mM citrate buffer pH 6.0+0.5% Triton X-100 for EZH2, H3K27me3 and pRB. After incubation with peroxidase-coupled secondary antibodies, sections were stained with DAB substrate.

[3] = flow cytometry of ears at day 7

## Abemaciclib mesylate
STAT3 lysine methylation
  lysine methylation of STAT3: abrogated
[1]; immunoblot of ear skin at day 6
  IL-36-mediated expression of IκBζ, phosphorylation of EZH2 at T345 and activation of STAT3 (pSTAT3 Y705) in skin: suppressed
[1]; intradermal IL-36α 5 days, topical inhibitor, abemaciclib 0.02 mg, CPI-169 0.05 mg, day 6
  keratinocyte hyperproliferation and immune cell infiltration: effectively blocked
[1]; qPCR of skin samples
  IκBζ target gene expression and key cytokine expression (Il17a, Il23a): effectively blocked
IκBζ (NFKBIZ) expression
  IL-36α- or IL-17A/TNFα-mediated induction of IκBζ expression: completely blocked; also recorded: abolished
[2]; ear skin sections of treated mice
  pRB expression in the epidermis (CDK4/6 inhibition): loss of pRB
[2]; [3]
  immune cell infiltration (neutrophils, macrophages, T cells): significantly suppressed
  number of infiltrating plasmacytoid (pDC) and myeloid dendritic cells (mDC): significantly suppressed
[2]; immunoblot of skin tissue at day 7
  IκBζ expression, phosphorylation of EZH2 at T345 and of STAT3 at Y705 in the skin: completely abrogated
[2]; qPCR of skin samples at day 7
  expression of IκBζ target genes (Cxcl2, Cxcl5) and cytokines (Il17a, Il23a) in skin: significantly downregulated
[2]; topical daily for 6 days with IMQ, abemaciclib 0.02 mg, CPI-169 0.05 mg per ear/day, analysed day 7
  psoriasis-like skin inflammation (ear thickening, keratinocyte hyperproliferation, immune cell infiltration): completely suppressed
[2]; topical on mouse ear skin
  skin penetration of topically applied inhibitor: effectively penetrated
